ChEMBL document CHEMBL1201862, “PubChem BioAssay data set” (2004)
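In this assay, cells in 96-well plates receive the compound at five concentrations for 48 hours. Endpoints are linearly interpolated between the surrounding concentrations. At the GI50, growth is halved.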 The source made the active and inactive calls. Cut-off read from the data, not from the text of the source: active = GI50 up to about 1.1 µM and inactive = higher.

Legend:
Experiment in all cases: inhibition of tumour cell growth, NCI panel, 48 h
UACC-257 = tested on: UACC-257
K562 = tested on: K562
HCC 2998 = tested on: HCC 2998
BT-549 = tested on: BT-549
MDA-MB-435 = tested on: MDA-MB-435
HT-29 = tested on: HT-29
KM12 = tested on: KM12
SN12C = tested on: SN12C
TK-10 = tested on: TK-10
ACHN = tested on: ACHN
MCF7 = tested on: MCF7
LOX IMVI = tested on: LOX IMVI
COLO 205 = tested on: COLO 205
NCI/ADR-RES = tested on: NCI/ADR-RES
NCI-H226 = tested on: NCI-H226
UO-31 = tested on: UO-31
M14 = tested on: M14
UACC-62 = tested on: UACC-62
A498 = tested on: A498
Malme-3M = tested on: Malme-3M

SMILES | GI50 (UACC-257) | GI50 (K562) | GI50 (HCC 2998) | GI50 (BT-549) | GI50 (MDA-MB-435) | GI50 (HT-29) | GI50 (KM12) | GI50 (SN12C) | GI50 (TK-10) | GI50 (ACHN) | GI50 (MCF7) | GI50 (LOX IMVI) | GI50 (COLO 205) | GI50 (NCI/ADR-RES) | GI50 (NCI-H226) | GI50 (UO-31) | GI50 (M14) | GI50 (UACC-62) | GI50 (A498) | GI50 (Malme-3M)
CCCCCCc1nn2c(-c3ccncc3)nnc2s1 | > 10 µM (inactive) | > 10 µM (inactive) | > 10 µM (inactive) | > 10 µM (inactive) | > 10 µM (inactive) | > 10 µM (inactive) | > 10 µM (inactive) | > 10 µM (inactive) | > 10 µM (inactive) | > 10 µM (inactive) | > 10 µM (inactive) | > 10 µM (inactive) | > 10 µM (inactive) | > 10 µM (inactive) | > 10 µM (inactive) | 1.42 µM (inactive) | > 10 µM (inactive) | > 10 µM (inactive) | > 10 µM (inactive) | > 10 µM (inactive)
CC1=NN(C(=O)CC(=O)Nc2cccc(C)c2)C(=O)C1/N=N\c1ccc(S(=O)(=O)c2ccc(/N=N/C3C(=O)N(C(=O)CC(=O)Nc4cccc(C)c4)N=C3C)cc2)cc1 (stereo not drawn) | > 100 µM (inactive) | > 100 µM (inactive) | > 100 µM (inactive) | > 100 µM (inactive) | > 100 µM (inactive) | > 100 µM (inactive) | > 100 µM (inactive) | > 100 µM (inactive) | > 100 µM (inactive) | > 100 µM (inactive) | > 100 µM (inactive) | > 100 µM (inactive) | > 100 µM (inactive) | > 100 µM (inactive) | > 100 µM (inactive) | > 100 µM (inactive) | > 100 µM (inactive) | > 100 µM (inactive) | > 100 µM (inactive) | 85.5 µM (inactive)
O=C1NC(=S)N/C1=C/c1c(-c2ccccc2)[nH]c2ccccc12 | 15.6 µM (inactive) | 10.1 µM (inactive) | 21.1 µM (inactive) | 12.6 µM (inactive) | 13.7 µM (inactive) | 16.3 µM (inactive) | 14.6 µM (inactive) | 18.5 µM (inactive) | 15.8 µM (inactive) | 17.4 µM (inactive) | 15.2 µM (inactive) | 10.9 µM (inactive) | 17.9 µM (inactive) | 18.6 µM (inactive) | 16.3 µM (inactive) | 9.23 µM (inactive) |  | 11.7 µM (inactive) | 11.4 µM (inactive) | 13.5 µM (inactive)
N=C(N)c1ccc(/N=N\c2c(O)c(C(=O)Nc3ccccc3)cc3ccccc23)cc1 | > 68.7 µM (inactive) | 7.08 µM (inactive) | > 37.6 µM (inactive) | 46 µM (inactive) | 41.5 µM (inactive) | 18.4 µM (inactive) | 16.4 µM (inactive) | 23.8 µM (inactive) | > 44.5 µM (inactive) | 23.3 µM (inactive) | 9.86 µM (inactive) | 2.02 µM (inactive) | 29 µM (inactive) | > 100 µM (inactive) | 34.8 µM (inactive) | 75.5 µM (inactive) | > 71.4 µM (inactive) | > 87.5 µM (inactive) | > 100 µM (inactive) | 32.1 µM (inactive)
COC(=O)C1=CC2C(=O)c3ccccc3C1(c1ccccc1)N2C1CCCCC1 (stereo not drawn) | 12.4 µM (inactive) | 4.63 µM (inactive) | 3.15 µM (inactive) | 22.6 µM (inactive) | 16.9 µM (inactive) | 14.8 µM (inactive) | 14.3 µM (inactive) | 24 µM (inactive) | 30.1 µM (inactive) | 16.2 µM (inactive) | 15.6 µM (inactive) | 15.5 µM (inactive) | 13.1 µM (inactive) | 27.9 µM (inactive) | 24.7 µM (inactive) | 15.1 µM (inactive) | 20 µM (inactive) |  | 26.7 µM (inactive) | 22.6 µM (inactive)
O=C1C(N2CCOCC2)=C(Cl)C(=O)c2ncccc21 | 1.73 µM (inactive) | 1.39 µM (inactive) | > 6 µM (inactive) | > 10 µM (inactive) | 1.73 µM (inactive) | > 7.89 µM (inactive) | > 3.84 µM (inactive) | 1.75 µM (inactive) | 1.98 µM (inactive) | 1.85 µM (inactive) | 1.81 µM (inactive) | 1.94 µM (inactive) | 2.24 µM (inactive) | 8.49 µM (inactive) | > 6.25 µM (inactive) | 4.23 µM (inactive) | 2.37 µM (inactive) | 2.33 µM (inactive) | 8.32 µM (inactive) | 1.89 µM (inactive)
COc1cc(CNc2nc3cc(C(F)(F)F)ccc3nc2C(=O)O)cc(OC)c1OC | 21.5 µM (inactive) | 28 µM (inactive) | 41.4 µM (inactive) | 29.8 µM (inactive) | 23.4 µM (inactive) |  | 24.7 µM (inactive) | 15.4 µM (inactive) | 13.1 µM (inactive) | 26.4 µM (inactive) | 20.1 µM (inactive) | 31.4 µM (inactive) | 22.6 µM (inactive) | 24.4 µM (inactive) | 60.7 µM (inactive) | 18.6 µM (inactive) | 17.5 µM (inactive) | 15.5 µM (inactive) | 24.2 µM (inactive) | 38.6 µM (inactive)
CN1CC(S(=O)(=O)c2ccccc2)CC(S(=O)(=O)c2ccccc2)C1c1ccccc1 (stereo not drawn) | 15 µM (inactive) | 15 µM (inactive) | 15.9 µM (inactive) | 11.7 µM (inactive) | 10.9 µM (inactive) | 14.8 µM (inactive) | 13.2 µM (inactive) | 10.4 µM (inactive) | 14.2 µM (inactive) | 12.5 µM (inactive) | 12.4 µM (inactive) | 11.7 µM (inactive) | 13.6 µM (inactive) | 23.3 µM (inactive) | 21.2 µM (inactive) | 15.3 µM (inactive) | 16.8 µM (inactive) | 14.3 µM (inactive) | 16.2 µM (inactive) | 13.6 µM (inactive)
Clc1ccc(C(Cc2cccc(Cl)c2)c2c(Cl)nc(N3CCNCC3)nc2Cl)cc1 (stereo not drawn) | 18.8 µM (inactive) | 12.6 µM (inactive) | 15.1 µM (inactive) | 20.6 µM (inactive) | 16.7 µM (inactive) | > 100 µM (inactive) | 13.9 µM (inactive) |  | 16.4 µM (inactive) | 15.5 µM (inactive) | 10.8 µM (inactive) | 12.9 µM (inactive) | 2.9 µM (inactive) | 18 µM (inactive) | 3.12 µM (inactive) | 12.9 µM (inactive) | 13.4 µM (inactive) | 19.5 µM (inactive) | 15.2 µM (inactive) | 13.6 µM (inactive)
Nc1nc(=O)n(C2OC(CO)C(O)C2O)c2ncc(-c3ccc(-c4ccccc4)cc3)nc12 (stereo not drawn) | > 100 µM (inactive) | > 100 µM (inactive) | > 100 µM (inactive) | > 100 µM (inactive) | > 100 µM (inactive) | > 100 µM (inactive) | > 100 µM (inactive) | > 100 µM (inactive) | > 100 µM (inactive) | > 100 µM (inactive) | 31.3 µM (inactive) | 83.2 µM (inactive) | > 100 µM (inactive) | > 100 µM (inactive) | 24.1 µM (inactive) | > 100 µM (inactive) |  | 66.4 µM (inactive) | > 100 µM (inactive) | > 100 µM (inactive)
COc1ccc(C2CCc3c(cnc4nc(N)nc(N)c34)C2)cc1 (stereo not drawn) | > 100 µM (inactive) | 0.83 µM (active) | 94.4 µM (inactive) | 44.7 µM (inactive) | 4.53 µM (inactive) | 4.69 µM (inactive) | > 100 µM (inactive) | 7.16 µM (inactive) | 12.8 µM (inactive) | 8.28 µM (inactive) | 15.8 µM (inactive) | 0.968 µM (active) | > 100 µM (inactive) | > 100 µM (inactive) | > 100 µM (inactive) |  | 1.49 µM (inactive) | 3.35 µM (inactive) | 38.4 µM (inactive) | 18.9 µM (inactive)
CC(C)=CCC[C@@H](C)/C=C/C=C(\C)C(=O)CC[C@@H]1CC[N@+]2(C)CCCC[C@H]12 | > 100 µM (inactive) | 49.9 µM (inactive) | > 100 µM (inactive) | 65.6 µM (inactive) | > 100 µM (inactive) |  | > 100 µM (inactive) | > 100 µM (inactive) | > 100 µM (inactive) | > 100 µM (inactive) | > 100 µM (inactive) | 35.2 µM (inactive) | 81.3 µM (inactive) | > 100 µM (inactive) | 4.47 µM (inactive) | > 100 µM (inactive) | > 100 µM (inactive) | > 100 µM (inactive) | > 100 µM (inactive) | 79.8 µM (inactive)
NC(Cc1ccc(S(=O)(=O)O)cc1)C(=O)NC(CCCCNC(=O)NCCCCC(NC(=O)C(N)Cc1ccc(S(=O)(=O)O)cc1)C(=O)NC(Cc1ccc(S(=O)(=O)O)cc1)C(=O)O)C(=O)NC(Cc1ccc(S(=O)(=O)O)cc1)C(=O)O (stereo not drawn) | > 100 µM (inactive) | > 100 µM (inactive) | > 100 µM (inactive) | > 100 µM (inactive) | > 100 µM (inactive) | > 100 µM (inactive) | > 100 µM (inactive) | > 100 µM (inactive) | > 100 µM (inactive) | > 100 µM (inactive) | 69.5 µM (inactive) | > 100 µM (inactive) | > 100 µM (inactive) | > 100 µM (inactive) | > 100 µM (inactive) | > 100 µM (inactive) | > 100 µM (inactive) | > 100 µM (inactive) | > 100 µM (inactive) | > 100 µM (inactive)
OC[C@H]1N[C@H](CO)[C@@H](O)[C@H]1O | > 100 µM (inactive) | > 100 µM (inactive) | > 100 µM (inactive) | > 100 µM (inactive) | > 100 µM (inactive) | > 100 µM (inactive) | > 100 µM (inactive) | > 100 µM (inactive) | > 100 µM (inactive) | > 100 µM (inactive) | > 100 µM (inactive) | > 100 µM (inactive) | > 100 µM (inactive) | > 100 µM (inactive) | > 100 µM (inactive) | > 100 µM (inactive) | > 100 µM (inactive) | > 100 µM (inactive) | > 100 µM (inactive) | > 100 µM (inactive)
